The test system of assay [1] is HCT116 MTAP null cells. Briefly: HCT116 MTAP null cell proliferation / viability (CellTiter-Glo, 6 days). Format: cell-based. To be noted: HCT116-MTAP null, 144 h, HCT116 MTAP null cells, 6 days, CellTiter-Glo; read-out: HCT-116 MTAP null IC50. The method in brief: (§1)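 Viability read by CellTiter-Glo after 6-day compound exposure of MTAP-null and wild-type HCT116 cells grown in RPMI 1640 with 10% FBS. Dosing used 1:3 steps from 1 or 10 μM (8-9 points) or 1:2 steps from 10 or 50 μM (22 points); IC50 taken where fitted curve crosses 50% of control.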
For orientation: In ATP-based viability assays light output follows the ATP content of the culture.

The test system of assay [2] is HCT116 WT cells. Briefly: HCT116 WT cell proliferation / viability (CellTiter-Glo, 6 days). Format: cell-based. To be noted: Homo sapiens, HCT-116, 144 h, HCT116 WT cells, 6 days, CellTiter-Glo; read-out: HCT-116 WT IC50. An outline of the steps: as §1

Consider 36 compounds from patent publication US20240101570A1 (AMGEN INC., priority 2020, published 2024).

Each structure is given as a SMILES string. Some results are limits rather than exact numbers.

The IC50 is the concentration at which inhibition is half-maximal. With `C[C@H](c1ccc(C(F)(F)F)cn1)N(C)C(=O)c1cc2c3c(c(N)nc2cn1)COC3` (single isomer, unassigned) [Example 854], the IC50 in assay [1] was determined as 86 nM; in assay [2], 3280 nM.
On the same counts, the results for `C[C@H](c1ccc(C(F)(F)F)nn1)N(C)C(=O)c1ccc2nc(N)c3cnn(C)c3c2c1` (single isomer, unassigned) [Example 855] are 164 nM and 28800 nM.
For `C[C@H](c1ccc(C(F)(F)F)nn1)N(C)C(=O)c1ccc2nc(N)c3c(c2c1)CO[C@@H]3C` (single isomer, unassigned) [Example 856], in that order: 87 nM and 8480 nM.
`C[C@H](c1ccc(C(F)(F)F)cc1)N(C)C(=O)c1cc2c3c(c(N)nc2cc1F)COC3` (single isomer, unassigned) [Example 857]: the IC50 in assay [1] was determined as 26 nM; in assay [2] it was 1090 nM.
On the same counts, the results for `C[C@H](c1ccc(C(F)(F)F)nn1)N(C)C(=O)c1cc2c3c(c(N)nc2cc1F)COC3` (single isomer, unassigned) [Example 858] are 41 nM and 3330 nM.
For `C[C@H]1OCc2c1c(N)nc1cc(F)c(C(=O)N(C)[C@@H](C)c3ccc(C(F)(F)F)cc3)cc21` (single isomer, unassigned) [Example 859], in that order: 583 nM and 17500 nM.
On the same counts, the results for `C[C@H](c1ccc(C(F)(F)F)cc1)N(C)C(=O)c1cc2c3c(c(N)nc2cc1F)[C@@H](C)OC3` (single isomer, unassigned) [Example 860] are 17 nM and 849 nM.
Regarding `C[C@H](c1ncc(C(F)(F)F)cc1F)N(C)C(=O)c1cc2c(cn1)nc(N)c1c2cnn1C` (single isomer, unassigned) [Example 861], the IC50 was found to be 205 nM in assay [1] and 13600 nM in assay [2].
For `C[C@H](c1ccc(C(F)(F)F)nn1)N(C)C(=O)c1cc2c3c(c(N)nc2cc1F)[C@@H](C)OC3` (single isomer, unassigned) [Example 862], the IC50 in assay [1] is 31 nM; in assay [2], 2200 nM.
For `C[C@H](c1ncc(C(F)(F)F)cc1F)N(C)C(=O)c1cc2c(cc1F)nc(N)c1cnn(C)c12` (single isomer, unassigned) [Example 863], in that order: 7 nM and 340 nM.
On the same counts, the results for `C[C@@H](c1ncc(C(F)(F)F)cc1F)N(C)C(=O)c1cc2c(cc1F)nc(N)c1cnn(C)c12` (single isomer, unassigned) [Example 864] are 618 nM and 22700 nM.
On to `C[C@H](c1ncc(C(F)(F)F)cc1F)N(C)C(=O)c1cc2c(cc1F)nc(N)c1c2cnn1C` (single isomer, unassigned) [Example 865], for which the 50% inhibitory concentration (IC50) in assay [1] turned out to be 59 nM; in assay [2] it was 2810 nM.
For `COc1cc(C(F)(F)F)cnc1[C@@H](C)N(C)C(=O)c1cc2c(cc1F)nc(N)c1c2cnn1C` (single isomer, unassigned) [Example 866], in that order: 309 nM and 11300 nM.
For `COc1cc(C(F)(F)F)cnc1[C@@H](C)N(C)C(=O)c1cc2c(cc1F)nc(N)c1cnn(C)c12` (single isomer, unassigned) [Example 867], in that order: 157 nM and 7840 nM.
For `C[C@H](c1ccc(S(F)(F)(F)(F)F)cc1)N(C)C(=O)c1cc2c(cn1)nc(N)c1c2cnn1C` (single isomer, unassigned) [Example 868], in that order: 59 nM and 3840 nM.
As for `C[C@@H](c1ccc(S(F)(F)(F)(F)F)cc1)N(C)C(=O)c1cc2c(cc1F)nc(N)c1cnn(C)c12` (single isomer, unassigned) [Example 869], the IC50 in assay [1] came to 627 nM; in assay [2], 8430 nM.
On the same counts, the results for `C[C@H](c1ccc(S(F)(F)(F)(F)F)cc1)N(C)C(=O)c1cc2c(cc1F)nc(N)c1cnn(C)c12` (single isomer, unassigned) [Example 870] are 7 nM and 162 nM.
`CC[C@H](c1cncnc1)N(Cc1ccc(S(F)(F)(F)(F)F)cc1)C(=O)c1cc2c(cn1)nc(N)c1cnn(C)c12` (single isomer, unassigned) [Example 871]: the half-maximal inhibitory concentration (IC50) came to 25 nM in assay [1] and 78 nM in assay [2].
With `CC[C@@H](c1cncnc1)N(Cc1ccc(S(F)(F)(F)(F)F)cc1)C(=O)c1cc2c(cn1)nc(N)c1cnn(C)c12` (single isomer, unassigned) [Example 872], the IC50 was 75 nM in assay [1] and 4500 nM in assay [2].
For `C[C@H](c1ccc(F)cn1)N(C)C(=O)c1cc2c(cc1F)nc(N)c1cnn(C)c12` (single isomer, unassigned) [Example 873], in that order: 66 nM and 7320 nM.
For `C[C@@H](c1ccc(F)cn1)N(C)C(=O)c1cc2c(cc1F)nc(N)c1cnn(C)c12` (single isomer, unassigned) [Example 874], in that order: 929 nM and 36000 nM.
On the same counts, the results for `CCN(C(=O)c1cc2c(cc1F)nc(N)c1cnn(C)c12)[C@H](C)c1ccc(F)cn1` (single isomer, unassigned) [Example 875] are 25 nM and 1420 nM.
As for `CCN(C(=O)c1cc2c(cc1F)nc(N)c1cnn(C)c12)[C@@H](C)c1ccc(F)cn1` (single isomer, unassigned) [Example 876], the IC50 is 334 nM in assay [1] and 30400 nM in assay [2].
With `C[C@@H](c1ccc(C(F)(F)F)nn1)N(C(=O)c1cc2c(cc1F)nc(N)c1cnn(C)c12)C1CC1` (single isomer, unassigned) [Example 877], the IC50 in assay [1] amounted to 756 nM; in assay [2], 44100 nM.
On the same counts, the results for `C[C@H](c1ccc(C(F)(F)F)nn1)N(C(=O)c1cc2c(cc1F)nc(N)c1cnn(C)c12)C1CC1` (single isomer, unassigned) [Example 878] are 10 nM and 709 nM.
For `C[C@H](c1ccc(C(F)(F)F)nn1)N(C)C(=O)c1cc2c(cc1C(F)(F)F)nc(N)c1cnn(C)c12` (single isomer, unassigned) [Example 879], in that order: 181 nM and 12300 nM.
On the same counts, the results for `C[C@@H](c1ccc(C(F)(F)F)nn1)N(C(=O)c1cc2c(cc1Cl)nc(N)c1cnn(C)c12)C1CC1` (single isomer, unassigned) [Example 880] are 137 nM and 8310 nM.
Take `C[C@H](c1ccc(C(F)(F)F)nn1)N(C(=O)c1cc2c(cc1Cl)nc(N)c1cnn(C)c12)C1CC1` (single isomer, unassigned) [Example 881]: the IC50 in assay [1] stood at 7 nM; in assay [2], 370 nM.
On the same counts, the results for `Nc1nc2ccc(C(=O)N(Cc3ccc(C(F)(F)F)cn3)CC3CC3)cc2c2c1COC2` [Example 300, 4-amino-N-(cyclopropylmethyl)-N-[[5-(trifluoromethyl)-2-pyridyl]methyl]-1,3-dihydrofuro[3,4-c]quinoline-8-carboxamide] are 41 nM and 1340 nM.
As to `CC(C)N(Cc1ccc(C#N)cn1)C(=O)c1ccc2nc(N)c3c(c2c1)COC3` [Example 301, 4-amino-N-((5-cyano-2-pyridinyl)methyl)-N-(2-propanyl)-1,3-dihydrofuro[3,4-c]quinoline-8-carboxamide], the figures for the IC50 in assay [1] and in assay [2] were 259 nM and 11000 nM, respectively.
On the same counts, the results for `CC(C)N(Cc1ccc(C2CC2)nc1)C(=O)c1ccc2nc(N)c3c(c2c1)COC3` [Example 302, 4-amino-N-((6-cyclopropyl-3-pyridinyl)methyl)-N-(2-propanyl)-1,3-dihydrofuro[3,4-c]quinoline-8-carboxamide] are 900 nM and 17300 nM.
On the same counts, the results for `COC[C@@H](C)N(Cc1ccc(Cl)nn1)C(=O)c1ccc2nc(N)c3c(c2c1)COC3` [Example 305, 4-amino-N-((6-chloro-3-pyridazinyl)methyl)-N-((2R)-1-methoxy-2-propanyl)-1,3-dihydrofuro[3,4-c]quinoline-8-carboxamide] are 27 nM and 861 nM.
On the same counts, the results for `COC[C@@H](C)N(Cc1ccc(Cl)nn1)C(=O)c1cc2c3c(c(N)nc2cn1)COC3` [Example 306, 4-amino-N-((6-chloro-3-pyridazinyl)methyl)-N-((2R)-1-methoxy-2-propanyl)-1,3-dihydrofuro[3,4-c][1,7]naphthyridine-8-carboxamide] are 217 nM and 7990 nM.
Take `COC[C@@H](C)N(Cc1ccc(Cl)nn1)C(=O)c1ccc2nc(N)c3c(c2c1)CO[C@@H]3C` [Example 307, (3R)-4-amino-N-((6-chloro-3-pyridazinyl)methyl)-N-((2R)-1-methoxy-2-propanyl)-3-methyl-1,3-dihydrofuro[3,4-c]quinoline-8-carboxamide]: the IC50 was determined as 18 nM in assay [1] and 471 nM in assay [2].
On the same counts, the results for `COC[C@@H](C)N(Cc1ccc(Cl)nn1)C(=O)c1cc2c3c(c(N)nc2cn1)[C@@H](C)OC3` [Example 308, (3R)-4-amino-N-((6-chloro-3-pyridazinyl)methyl)-N-((2R)-1-methoxy-2-propanyl)-3-methyl-1,3-dihydrofuro[3,4-c][1,7]naphthyridine-8-carboxamide] are 124 nM and 5100 nM.
For `C[C@@H]1OCc2c1c(N)nc1cnc(C(=O)N(Cc3ccc(C(F)(F)F)cn3)C34CC(C3)C4)cc21` [Example 309, (3S)-4-amino-N-(bicyclo[1.1.1]pentan-1-yl)-3-methyl-N-((5-(trifluoromethyl)-2-pyridinyl)methyl)-1,3-dihydrofuro[3,4-c][1,7]naphthyridine-8-carboxamide], in that order: 4000 nM and over 10000 nM.
